Results published in patent EP0187551A1, “Pyrazolo[4,3-c]cinnolin-3-one derivatives, their salts, preparation process, use as medicaments, compositions containing them and intermediate products” (ROUSSEL-UCLAF, priority 1985, dated 1986).

Experiments:
[1] = target: récepteurs des benzodiazépines; test: Affinity for benzodiazepine receptors (displacement of 3H diazepam, rat cortex membranes); design: species or system rats; details: concentration inhibiting 50 % of specific 3H diazepam (10^-9M) binding, 30 min at 0°C, read-out: CI 50 (the source's name)
Method: 1) Affinité pour les récepteurs des benzodiazépines.
On homogénéise au vingtième (poids/volume) dans le sucrose 0,32M, les cortex prélevés sur des cerveaux de rats mâles pesant 150 g en moyenne.
Après centrifugation de l'homogénat à 1000 g pendant 10 minutes à 0°C, le surnageant est centrifugé à 30 000 g pendant 20 minutes à +4"C. Le culot est mis en suspension dans 20 volumes de tampon Tris Hcl 50mM pH 7,4 et centrifugé à 30 000 g pendant 20 minutes à +4°c. Le nouveau culot obtenu est mis en suspension dans 50 ml de tampon Krebs Tris HCl pH 7,4.
On fait ensuite incuber pendant 30 minutes à 0°C, 2 ml de suspension en présence de ^3H diazepam à la concentration 10-^9M, seul, avec des concentrations croissantes du produit à tester, ou, pour déterminer la fixation non spécifique, avec du diazepam non radioactif à la concentration 10^-6M.
Les suspensions incubées sont filtrées sur Whatman GF/C et les filtres sont lavés par deux fois 5 ml de tampon Krebs Tris HCl pH 7,4 à 0°C.
La radioactivité des filtres est mesurée par scintillation liquide.
L'activité du produit est exprimée en C. I. 50 : concentration inhibant 50 % de la liaison spécifique de ^3H diazepam déterminée graphiquement.

[2] = tested on: rats; test: Staircase test (test de l'escalier); assay type: in vivo; details: 20 mg/Kg, 1 h after administration, counted for 3 min
Excerpt: L'appareil et le protocole utilisés ont été décrits par THIEBOT et coll. (Psychopharmacologia (Berlin) 1973, 31, 77).
L'expérimentation est réalisée sur des lots de 15 rats naifs. Les animaux sont déposés individuellement dans l'enceinte 1 heure après l'administration du composé étudié. Le nombre de redressements effectués et le nombre de marches montées sont comptés pendant 3 mn.

[3] = tested on: souris; test: Four-plate test (test des 4 plaques), mice; assay type: in vivo; details: 1/2 h after administration
Method: (§1) L'appareil (Apelab) et le protocole utilisés ont été décrits par BOISSIER et coll. (European J. Pharmacol. 1968, 4, 145). Les plaques sont reliées à un stimulateur (U. Sachs, Roucaire) qui permet de délivrer des chocs électriques de 120 volts pendant 0,5 s. Les essais sont réalisés sur des lots de 10 souris ou rats 1/2 h après administration per os du composé étudié. Chaque animal est déposé individuellement sur l'appareil. Après 15s d'exploration libre , il est soumis à un choc électrique chaque fois qu'il passe d'une plaque à l'autre, un minimum de 3 secondes étant observé entre deux chocs. Le nombre de chocs délivrés est compté pendant 1 minute. Les résultats obtenus sont comparés à ceux observés chez des animaux témoins par un test de Dunnett.

[4] = tested on: rats; test: Four-plate test (test des 4 plaques), rats; assay type: in vivo; details: 20 mg/Kg per os, 1/2 h after administration
Method: as §1

For O=c1c2n[nH]c3ccc(Cl)cc3c-2nn1-c1ccccc1 [Exemple 1, 8-chloro-2,5-dihydro-2-phényl 3H-pyrazolo/4,3-c/ cinnolin-3-one], the IC50 [1] was 1.4 nM, the “diminution du nombre de redressements” value [2] was 46% and the “nombre de marches montées” value [2] was “sans modification notable”. The “augmentation du nombre de chocs délivrés” value ([3]; 20 mg/Kg per os) was 63% and the “augmentation du nombre de chocs délivrés” value [4] was 41%.
For O=c1c2n[nH]c3ccccc3c-2nn1-c1ccccc1 [Exemple 3, 2,5-dihydro-2-phényl 3H-pyrazolo/4,3-c/ cinnolin-3-one], the “augmentation du nombre de chocs” value ([3]; 50 mg/kg per os) was 50%.
In the case of O=c1c2n[nH]c3ccccc3c-2nn1-c1ccccn1 [Exemple 8, Chlorhydrate du 2,5-dihydro-(2-pyridin-2-yl) 3H-pyrazolo /4,3-c/ cinnolin-3-one], the “augmentation du nombre de chocs” value ([3]; 100 mg/kg per os) is reported as 50%.
